# What was measured:
# Test in all cases: relative viability (nuclei count vs DMSO), 5 days (fraction); higher = more cells survive
# Pifithrin_alpha = compound: CC1=CC=C(C=C1)C(=O)CN2C3=C(CCCC3)SC2=N [Pifithrin_alpha]
# Outline: (§1)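 Lung cancer cell lines received five library-drug doses (not always all listed) spaced by √10, pinned on vehicle-anchored 1536-well plates after an overnight stay at 37 °C. Five days later, with no medium change, nuclei were Hoechst-stained, imaged at 4× and counted with MetaXpress. Viability is treated-well nuclei relative to vehicle-well nuclei, as a median across plates. Passing plates had control CV below 25% and at least one doubling.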
# Axitinib = compound: CNC(=O)c1ccccc1Sc1ccc2c(/C=C/c3ccccn3)n[nH]c2c1 [Axitinib]
# Outline: as §1
# Bemcentinib = compound: Nc1nc(Nc2ccc3c(c2)CC[C@@H](N2CCCC2)CC3)nn1-c1cc2c(nn1)-c1ccccc1CCC2 [Bemcentinib]
# Outline: as §1
Cell Line,relative viability (Pifithrin_alpha; 1 µM),relative viability (Pifithrin_alpha; 3.162 µM),relative viability (Pifithrin_alpha; 10 µM),relative viability (Pifithrin_alpha; 31.62 µM),relative viability (Pifithrin_alpha; 100 µM),relative viability (Axitinib; 0.005 µM),relative viability (Axitinib; 0.01581 µM),relative viability (Axitinib; 0.05 µM),relative viability (Axitinib; 0.1581 µM),relative viability (Axitinib; 0.5 µM),relative viability (Bemcentinib; 0.04 µM),relative viability (Bemcentinib; 0.1265 µM),relative viability (Bemcentinib; 0.4 µM),relative viability (Bemcentinib; 1.265 µM),relative viability (Bemcentinib; 4 µM)
201T,0.992,0.781,0.679,0.646,0.724,0.994,0.936,0.953,0.964,0.955,0.943,0.982,1.05,0.947,1.01
A549,1.03,1.01,1,0.889,1.01,0.997,0.95,0.95,0.877,1.02,0.977,1.13,0.984,1.04,1.02
A-427,0.975,0.957,0.804,0.788,1.02,1.02,0.93,1.02,1.02,0.964,0.935,1.11,1.05,0.93,0.931
ABC-1,0.523,0.85,0.788,0.55,0.731,0.945,0.863,0.985,0.812,1.08,0.78,1.14,1.16,0.865,0.984
BEN,0.854,1.02,1.14,0.93,1.08,0.958,1.01,0.902,0.868,0.741,0.833,1.13,1.08,0.919,0.894
CAL-12T,0.778,1,0.937,0.711,0.765,1.03,1,0.983,0.94,0.977,0.989,1.02,1.06,1.02,1.01
COR-L23,1.07,1.09,0.977,,0.94,1.05,0.93,1.06,0.923,1.05,1.03,1.17,1.14,1.18,1.12
COR-L 105,0.792,0.841,0.862,0.695,0.758,0.995,0.786,1.02,0.868,1.2,0.726,0.964,1.06,0.912,1.04
Calu-6,1.06,1.05,1,0.655,0.899,1.08,0.999,1.03,1,1.12,1.07,1.15,1.13,1.08,1.05
ChaGo-K-1,0.882,0.987,1,0.842,1.05,1.06,1.02,1.05,0.922,0.936,1.01,0.966,1.03,0.938,0.929
EBC-1,0.973,0.996,0.794,0.582,0.723,1.15,0.995,1.05,0.956,1.08,1.02,1.2,1.09,0.999,1.22
EKVX,0.984,0.861,0.858,0.738,0.695,1.01,0.963,0.917,0.88,0.99,0.793,1.09,1.02,1.03,1.03
EMC-BAC-2,0.716,1.02,0.617,0.799,0.93,1,0.925,0.977,0.957,0.771,0.956,0.939,1.07,0.955,0.978
EPLC-272H,0.622,0.892,0.859,0.755,0.802,0.943,0.832,0.938,0.896,0.83,0.749,0.991,1.01,0.906,0.841
H3255,0.856,0.93,0.945,0.71,0.795,0.985,0.851,0.912,0.894,0.896,0.804,0.994,0.993,0.951,0.964
HARA,0.906,0.783,0.916,0.65,0.853,1.05,0.79,0.887,0.756,1.12,0.899,1.28,0.995,0.82,0.951
HCC-15,0.938,1.02,0.931,0.674,0.808,1.06,0.99,1,0.98,0.947,0.964,1.13,1.05,1.07,1.07
HCC-44,0.819,0.911,0.911,0.736,0.856,1.01,0.971,0.977,0.987,0.988,0.984,1.03,1.01,1.02,0.988
HCC-78,0.669,0.892,0.815,0.694,0.823,0.978,1.02,0.893,0.936,0.867,0.752,0.926,1.07,0.791,0.957
HCC-366,1.01,0.974,1.01,,1.04,0.99,0.999,1.06,1,1.04,1.07,1.07,0.987,0.986,0.995
HCC-827,1.03,1.02,0.977,0.809,0.896,1.03,1.01,1.06,1.1,1.15,1.07,1.05,0.994,0.976,1.06
HOP-62,0.952,1.1,1.06,0.791,1.12,1.01,0.965,1.03,1.01,1.03,1.01,1.15,0.999,1.02,1.04
IA-LM,0.853,0.993,0.555,0.491,0.418,1.03,0.954,0.987,0.999,0.88,0.946,1.19,0.975,0.995,0.977

Cell Line,relative viability (Pifithrin_alpha; 1 µM),relative viability (Pifithrin_alpha; 3.162 µM),relative viability (Pifithrin_alpha; 10 µM),relative viability (Pifithrin_alpha; 31.62 µM),relative viability (Pifithrin_alpha; 100 µM),relative viability (Axitinib; 0.005 µM),relative viability (Axitinib; 0.01581 µM),relative viability (Axitinib; 0.05 µM),relative viability (Axitinib; 0.1581 µM),relative viability (Axitinib; 0.5 µM),relative viability (Bemcentinib; 0.04 µM),relative viability (Bemcentinib; 0.1265 µM),relative viability (Bemcentinib; 0.4 µM),relative viability (Bemcentinib; 1.265 µM),relative viability (Bemcentinib; 4 µM)
LC-2-ad,0.702,1,0.96,0.697,0.832,1,0.963,1.03,0.956,1.02,0.903,0.988,0.99,0.971,0.972
LCLC-97TM1,,0.934,1.13,,0.975,1.06,1.02,0.986,0.892,0.822,0.997,1.09,0.801,1.03,0.982
LCLC-103H,0.996,0.974,0.959,0.848,0.887,0.946,0.973,1,0.959,0.867,0.992,1.07,0.96,1.04,0.994
LK-2,0.975,1.18,1.12,,1.25,0.976,0.746,0.816,0.823,0.822,0.969,1.26,1.25,1.06,1.01
LOU-NH91,0.774,0.911,0.878,0.731,0.765,0.989,0.796,1.05,0.973,1,0.912,0.955,1,0.984,0.997
LU99A,0.941,0.89,0.903,,0.869,0.903,1.02,1.03,0.883,0.904,0.903,1.02,0.98,1.02,1.02
LXF-289,1.02,1.02,0.98,0.941,0.977,1.01,0.971,0.994,0.963,1.05,1.03,1.09,1.06,1.06,1.05
NCI-H23,0.847,0.846,0.959,0.582,0.787,1.02,0.954,1.15,0.926,0.97,0.92,1.24,1.13,0.838,1.06
NCI-H322M,0.906,0.891,1.01,0.851,0.869,1.03,0.847,0.992,0.813,1.03,0.873,0.966,0.982,0.953,0.998
NCI-H358,0.825,0.94,0.924,0.733,0.945,0.947,0.957,1.05,0.87,1.14,0.915,0.941,0.997,1.01,1.07
NCI-H441,1.08,1.21,1.03,0.721,1.23,1.07,1.07,1.11,1.22,1.1,1.01,1.23,1.04,0.915,1.26
NCI-H460,1.06,0.949,0.872,0.592,0.837,0.976,0.981,1.05,1.01,1.1,0.973,1.1,1.06,1.07,1.01
NCI-H520,1.05,0.916,0.96,0.763,1.1,0.974,0.737,1.07,0.765,0.992,0.868,1.08,0.992,1.02,1.08
NCI-H522,0.79,1.12,0.947,0.85,0.972,0.914,0.969,0.996,0.882,0.693,0.927,0.96,1.06,0.9,0.879
NCI-H596,1.12,0.886,0.958,0.973,0.996,1.04,0.956,1.03,1.06,0.947,0.883,1.03,0.924,0.908,1.07
NCI-H647,0.949,0.916,0.889,0.722,0.849,1.14,0.97,1.03,0.968,1.15,1.06,1.09,0.989,0.971,1.03
NCI-H661,0.948,1.01,0.988,1.02,0.873,1.01,1.02,0.987,0.96,1.02,0.965,1.07,0.994,1.01,0.964
NCI-H727,0.829,0.841,0.883,0.587,0.837,1.01,0.881,0.991,0.86,0.972,0.869,1.08,1.19,1.01,1.2
NCI-H838,0.856,0.807,0.854,0.735,0.643,0.992,0.944,1.01,0.933,1.03,0.946,1.08,1,1.02,1.03
NCI-H1299,0.997,1.06,1.02,0.812,1.02,1.04,1,1.05,1,1.08,1.02,1.02,1.05,0.994,1.05
NCI-H1355,0.849,0.808,0.645,0.565,0.713,0.945,1.01,1.05,0.968,0.901,0.992,1.08,1.09,0.974,1.06
NCI-H1395,,0.902,0.915,0.693,0.85,0.992,0.719,0.985,0.886,0.878,0.893,1.02,0.952,0.892,0.838
NCI-H1437,1.02,1.05,0.953,0.827,0.793,1.05,0.991,0.961,0.983,1.01,0.925,1.01,1.03,0.965,0.969
